{"source": "patent US10905761B2", "about": "“Use of a lipopeptide or lipoprotein as an adjuvant in therapeutic or prophylactic vaccinations” (HELMHOLTZ-ZENTRUM FUER INFEKTIONSFORSCHUNG GMBH, priority 2002, dated 2021)", "format_in_all_cases": "in vivo", "key": {"BALB/c (H-2d) mice [1]": {"test_system": "BALB/c (H-2d) mice", "assay": "Kinetics of β-gal-specific IgG responses in sera of mice immunized i.n. or i.p. (Example 4)", "experimental": "Groups of animals (n=5) were immunized either i.n. (A) or i.p. (B) with 50 μg of β-gal ( ), β-gal plus 10 μg of CTB ( ), β-gal plus 0.5 μg of MALP-2 ( ) or pure buffer solution ( ). The days of the immunizations (day 0, 14 and 21) are marked by arrows. The results are shown as the reciprocal log2 of the geometric endpoint titer, and the SEM […] is indicated by means of vertical lines.\nSix- to eight-week old female BALB/c (H-2d) mice were purchased from Harlan Winkelmann GmbH (Borchen, Germany) and treated in accordance with local and EU directives. Groups each of 5 mice were immunized on day 1, 14 and 21 either with 40 μg of pure β-galactosidase (Boehringer, Mannheim, Germany) with admixture of 0.5 μg of synthetic MALP-2 or 10 μg of cholera toxin B subunit (CTB; ICN Biomedicals Inc., Ohio) as standard adjuvant. For intranasal administration (i.n.), 10 μl were administered into each nostril, while for the i.p. injection β-galactosidase was resuspended with or without MALP-2 in 400, 100 or 100 μl of PBS. Serum samples were taken at various times (day 0, 13, 20 and 30) and stored at −20° C. until the β-galactosidase-specific antibodies were determined. Nunc-Immuno MaxiSorp assay plates with 96 wells (Nunc, Roskilde, Denmark) were coated with 100 μl of β-gal (Boehringer, Mannheim, Germany) with 5 μg/ml in 0.05 M […] (pH 8.2) per well. Serial two-fold dilutions of the sera or lavages in PBS with 1% BSA and 0.05% Tween-20 were added (100 μl/well) and the plates were incubated at 37° C. for 24 hours. After rinsing, biotinylated γ chain-specific goat anti-mouse IgG (Sigma Chemie, Deisenhofen, Germany) was added, and the plates were incubated at 37° C. for a further hour. After rinsing four times, 100 μl of peroxidase-conjugated streptavidin (Pharmingen) were added to the […], and the plates were incubated at 37° C. for 30 minutes. After rinsing four times, the reactions were developed by means of ABTS in 0.1 M citrate-phosphate buffer (pH 4.35) which contained 0.01% H2O2."}, "BALB/c (H-2d) mice [2]": {"test_system": "BALB/c (H-2d) mice", "assay": "Serum IgE level after immunization (capture ELISA, Example 6)", "settings": "MALP-2 i.p. or via the mucous membranes; day 28", "experimental": "Mice were immunized intraperitoneally (i.p.) and intranasally (i.n.) either with pure β-galactosidase (40 μg), exclusively MALP-2 or β-galactosidase mixed with MALP-2 (0.5 μg) on days 0, 7 and 14. On day 28 after the first immunization, serum samples were obtained, and the IgE levels were determined by means of a capture ELISA. The results are shown as IgE concentrations (ng/ml).\nTo determine the total IgE concentration in the serum of immunized and control animals, serial dilutions of the appropriate samples were incubated in microtiter plates which had previously been coated with anti-mouse IgE (100 μl/well) as capture antibody. After blocking with PBS with 1% BSA and 0.05% Tween-20 at room temperature for two hours, a 1:100 dilution of the serum in PBS-Tween was added (100 μl/well) and the plates were incubated at 37° C. for one hour. After rinsing, biotinylated anti-mouse IgE was added and the plates were incubated at 37° C. for a further hour. After rinsing four times, 100 μl of peroxidase-conjugated streptavidin (Pharmingen) were put in the wells, and the plates were incubated at 37° C. for 30 minutes. After rinsing four times, the reactions were developed by means of ABTS in 0.1 M citrate-phosphate buffer (pH 4.35) and a content of 0.01% H2O2. Serial dilutions of purified mouse IgE were used to produce a standard plot."}, "BALB/c (H-2d) mice [3]": {"test_system": "BALB/c (H-2d) mice", "settings": "mice immunized i.n.; β-gal restimulation"}, "BALB/c (H-2d) mice [4]": {"test_system": "BALB/c (H-2d) mice", "assay": "Oral immunization with β-galactosidase and MALP-2 as mucosal adjuvant (serum antibody ELISA, Example 9)", "settings": "100 μg β-gal with 2 μg MALP-2, days 1, 14, 21, 31, serum day 45", "experimental": "FIG. 12: Humoral responses stimulated after vaccination with MALP-2 as adjuvant in a dose 2 μg per animal per immunization. The mice were immunized orally either with β-galactosidase alone (100 μg/dose) or with β-galactosidase mixed with MALP-2 (2 μg/dose) on […]. On day 45 after the first immunization, serum samples were obtained, and the titers of the β-galactosidase-specific antibodies were determined with an ELISA.\nSix- to eight-week old female BALB/c (H-2d) mice were purchased from Harlan Winkelmann GmbH (Borchen, Germany) and treated in accordance with local guidelines and directives of the European Community. Groups each of 5 mice were immunized on days 1, 14, 21 and 31 with 100 μg of β-gal (Boehringer, Mannheim, Germany) either alone or with 2 μg of synthetic MALP-2 as adjuvant by the oral route (dose 25 μl). On day 45, serum samples were taken and stored at −20° C. until β-gal-specific antibodies were determined. 96-well Nunc-Immuno MaxiSorp® assay plates (Nunc, Roskilde, Denmark) were coated with 100 μl of β-gal at 5 μg/ml in 0.05 M carbonate buffer (pH 8.2) per well. […] The final value titers have been expressed as the reciprocal logarithmic log2 values of the last dilution which resulted, after incubation for 30 minutes, in an optical density at 405 nm of 0.1 units above the values for the negative controls."}}, "note": "No end group written: not given here."}
{"substance": "S-[2,3-bispalmitoyloxypropyl]cysteinyl-GNNDESNISFKEK ({S‑(2,3-bispalmitoyloxypropyl)Cys}-GNNDESNISFKEK) [MALP-2]", "values": [{"measurement": "kinetics and overall efficacy of antibody responses compared with 10 μg CTB", "setting": "BALB/c (H-2d) mice [1]; 0.5 μg MALP-2 versus 10 μg CTB, i.n.", "result": "very similar"}, {"measurement": "increase of β-galactosidase-specific IgG serum titers", "setting": "BALB/c (H-2d) mice [1]; i.p., 0.5 μg per animal per dose, versus pure β-galactosidase", "result": 100, "unit": "fold"}, {"measurement": "titers of specific IgG at the end of the immunization protocol", "setting": "BALB/c (H-2d) mice [1]; β-galactosidase with 0.5 μg MALP-2 i.n.", "result": "above 500,000"}, {"measurement": "titers of specific IgG in serum after a single dose", "setting": "BALB/c (H-2d) mice [1]; β-galactosidase with 0.5 μg MALP-2 i.n., single dose", "result": "> 60,000"}, {"measurement": "serum IgE content", "setting": "BALB/c (H-2d) mice [2]", "result": "does not lead to an increase"}, {"measurement": "IL-10 content in supernatants of spleen cells stimulated in vitro", "setting": "BALB/c (H-2d) mice [3]", "result": 2.2, "unit": "ng/mL"}, {"measurement": "serum immune responses to β-gal after oral immunization", "setting": "BALB/c (H-2d) mice [4]", "result": "Immune responses to β-gal were observed"}]}
